US7517646B2, “Functional molecule and process for producing the same” (Fujitsu Limited, priority 2002, dated 2009)

Biological target: human albumin (Homo sapiens, UniProt P02768)
Test: affinity column filled with beads bound with human albumin; binding of the selected functional molecule
Settings: functional molecule selected from the random polymer pool N20-M20-N20 on a human albumin affinity column
Procedure: First, an affinity column, which was filled with beads bound with human albumin as the target, was prepared and a solution containing the random polymer pool was passed through this column to leave at a specific condition and, then, the modified oligonucleotide sequence showing the affinity to the target adsorbed to the column (FIG. 3B). Subsequently, remained components other than the remained oligonucleotide sequence were removed by washing sufficiently with a buffer solution and the solution containing human albumin was passed through the column to select and collect the oligonucleotide containing the modified oligonucleotide random sequence (FIG. 3C). The step described above is the selecting step.
This selected modified oligonucleotide sequence was amplified by PCR followed by cloning to know the base sequence of the DNA. As the result, a portion of the base sequence of the determined modified oligonucleotide was “ATGCTCTAGCCCCT” (SEQ ID NO: 1) (FIG. 3D). The step described above is the determining step.
Translating this base sequence on the basis of the relation table presented “AU1GC6U4CU3AGC6C3CC5T” resulting in identification of a structure of the functional molecule (FIG. 3D). The step described above is the translating step.

Chain of human albumin (P02768 25-609): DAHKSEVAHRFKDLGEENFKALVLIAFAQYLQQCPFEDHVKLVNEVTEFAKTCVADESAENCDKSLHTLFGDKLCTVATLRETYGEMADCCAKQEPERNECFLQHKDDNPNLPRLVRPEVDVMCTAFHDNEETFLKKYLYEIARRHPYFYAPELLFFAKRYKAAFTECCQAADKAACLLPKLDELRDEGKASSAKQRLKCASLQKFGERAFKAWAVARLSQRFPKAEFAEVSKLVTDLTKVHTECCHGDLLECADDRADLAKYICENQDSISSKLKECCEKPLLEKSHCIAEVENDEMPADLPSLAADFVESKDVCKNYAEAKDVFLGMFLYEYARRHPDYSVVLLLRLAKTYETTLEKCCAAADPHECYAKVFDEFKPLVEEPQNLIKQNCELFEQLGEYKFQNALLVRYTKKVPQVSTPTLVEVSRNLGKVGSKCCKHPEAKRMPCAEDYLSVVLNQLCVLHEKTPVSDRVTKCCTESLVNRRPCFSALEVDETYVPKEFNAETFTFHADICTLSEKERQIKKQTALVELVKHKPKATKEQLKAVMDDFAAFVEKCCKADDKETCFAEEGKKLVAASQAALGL

“AU1GC6U4CU3AGC6C3CC5T (AUGCUCUAGCCCCT; modified nucleotides, further chemistry not given here) [functional molecule]” was tested, and the “binding to human albumin” value was “bound specifically with human albumin”.
